Experimental data: paper PMC11047392, “A Physiological Approach to Explore How Thioredoxin–Glutathione Reductase (TGR) and Peroxiredoxin (Prx) Eliminate H2O2 in Cysticerci of Taenia” (Antioxidants, 2024)

Target: T1, TsPrx1 (Taenia solium, UniProt Q2TP88)
T1 construct: recombinant, pET-23a(+) NdeI/XhoI, E. coli BL21 Codon Plus, His tag (printed as amino terminal), 195 residues, ~22 kDa
Experiment: NADPH oxidation at […] nm, coupled assay with TsTrx and TcTGR
Type: biochemical
Settings: 150 μM NADPH, 60 μM TsTrx, 11.2 nM TcTGR, 1.25 μM TsPrx1, pH 7.8, 25 °C

T1 sequence (Q2TP88 entry or part of it): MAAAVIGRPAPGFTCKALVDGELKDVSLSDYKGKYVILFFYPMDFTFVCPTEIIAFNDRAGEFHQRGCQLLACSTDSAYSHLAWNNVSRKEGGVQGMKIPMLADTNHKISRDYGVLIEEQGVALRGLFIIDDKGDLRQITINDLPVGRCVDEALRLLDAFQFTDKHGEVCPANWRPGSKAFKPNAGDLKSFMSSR

## CC(C)(C)OO [t-butyl hydroperoxide]
  Km: 18.1 µM
